In US20090197279A1, “MICROTUBULE SYNTHESIS AS A BIOMARKER” (KINEMED, INC., priority 2005, published 2009):

Legend:
[1] = system: total hippocampal proteins; assay: Fractional synthesis of total hippocampal proteins; assay type: in vivo, mouse; conditions: coadministration of 0.66 pmol Rp-cAMP with glutamate
Method: FIG. 7 depicts the effects of ICV glutamate on the relative amounts of MT subpopulations and on total protein synthesis in murine hippocampus. (A, B) Tubulin abundances are measured by Western blot analysis for α-tubulin at 8 hour (A) and 24 hours (B). Subpopulations were total extract (total), free tubulin dimers, tau-associated MTs, tau-nonassociated (MAP2/STOP) MTs and cold stable (CS) MTs. Mock and glutamate infused ICVC mice are shown (cf. FIGS. 6A and B). […] (C) Fractional synthesis of total hippocampal proteins. Glutamate increased protein synthesis versus mock-treated animals (*p<0.01); this effect was blocked by coadministration with 0.66 pmol of Rp-cAMP (**p<0.02).
This hypothesis had not previously been tested in the living brain, however. To test this hypothesis, we used the methods of the invention disclosed herein. Mice were infused with 6 μl water containing 0.48 nmol glutamate (80 μM in the infusate), or glutamate plus 0.66 pmol Rp-cAMP (110 nM in the infusate). Label incorporation into hippocampal tubulin dimers and into microtubule polymers was then quantified after administration of ^2H2O for 8 hours or 24 hours (FIGS. 7A and 7B). […] These findings further strengthen the previously reported correlation between hippocampus glutamate NMDA receptor-dependent learning (long-term potentiation) and protein synthesis (Kandel, E. R. The molecular biology of memory storage: a dialogue between genes and synapses. Science 294, 1030-1038 (2001)). By the same criterion, the glutamate-induced program of changes in hippocampal microtubule dynamics shown in FIGS. 6 and 7 also alters hippocampal total protein synthesis in vivo (data not show), further supporting the capacity of the invention disclosed herein to generate a biochemical record of basic neuroanatomic connectivity in the brain and thereby to reveal the dynamics of synaptogenesis in vivo.

[2] = system: hippocampal tubulin dimers and tau-associated, tau-nonassociated (MAP2/STOP) and cold-stable microtubules; assay: 2H label incorporation into hippocampal tubulin dimers and microtubule fractions after ICVC infusion (2H2O labeling, GC/MS); assay type: in vivo, mouse
Method: In (A) and (B), mice received ICVC infusions of 6 μl water alone or containing 0.48 nmol glutamate (80 μM in the infusate), or glutamate plus 0.66 pmol Rp-cAMP (110 nM in the infusate). Animals were then labeled with ^2H2O for 8 hours (A) or 24 hours (B). At sacrifice, the hippocampal post-nuclear supernatant was fractionated as show in FIG. 5A; a separate aliquot was used for isolation of cold stable (CS) MTs (FIG. 5D). Glutamate injection stimulated label incorporation into new MAP2/STOP-MTs at 8 and 24 hours, and CS MTs at 24 hours; both were blocked by Rp-cAMP. In order to correct the effects of pharmacologic intervention on MT dynamics for the confounding changes in tubulin synthesis, the numbers above each bar express ^2H label incorporation into MT as a percentage of ^2H labeling in the corresponding tubulin dimer fractions. (C) Dose dependence of glutamate effects. ^2H2O labeling was initiated at time zero, 6 μl ICVC infusions with the indicated concentrations of glutamate were performed at 24 hours, and labeling was continued until sacrifice at 48 hours (24 hours post glutamate infusion). Hippocampal MTs were fractionated into tau-associated, MAP2-associated, and non-associated (STOP-associated) MT fractions, as in FIG. 5A. In all experiments, bars represent % new tubulin (mean±SD, n=3).
Tubulin was purified using minor modifications of protocols described previously (Fanara, P., Oback, B., Ashman, K., Podtelejnikov, A., Brandt, R. Identification of MINUS, a small polypeptide that functions as a microtubule nucleation suppressor. EMBO J. 18, 565-577 (1999); Fanara, P. et al. In vivo measurement of microtubule dynamics using stable isotope labeling with heavy water. Effect of taxanes. J. Biol. Chem. 279, 49940-49947 (2004). Briefly, cultured neurons were gently scraped off culture plates, washed in phosphate-buffered saline (PBS), and homogenized in microtubule-stabilizing buffer. For purification ex vivo, mice were anesthetized with isoflurane and euthanized by cervical dislocation. Brains were rapidly removed and washed in microtubule-stabilizing buffer (MSB); hippocampi were dissected and gently homogenized in MSB. To separate cytosolic tubulin dimers from microtubule polymers, post-nuclear supernatants were centrifuged at 190,000×g at 20° C. for 35 min. The supernatant or non-microtubule fraction (containing the soluble dimeric tubulin) was separated from the pellet or microtubule fraction (containing polymeric tubulin), quick-frozen and stored at −20° C. Microtubule pellets were further fractionated by sequential immunoaffinity chromatography steps (FIG. 3). In order to isolate tau-associated microtubules, TAU5 antibody was covalently coupled to epoxy-activated Sepharose beads (Amersham Pharmacia Biotech) at a concentration of 0.25 mg/ml. Approximately 0.2 mg of the microtubule pellet was incubated with TAU-5 beads in 0.5 ml MSB for 1 hour at room temperature. Unbound material was removed, the beads were washed three times in 0.5 ml of MSB, and bound material was eluted in 0.5 ml MSB containing 1M NaCl. In some experiments, MAP2-associated microtubules were captured from the TAU5-unbound material by immunoaffinity chromatography on epoxy-activated Sepharose beads coupled to MAP2 antibody (0.5 mg antibody per ml beads) using the same protocol. The relative abundance of tubulin in each preparation (Tubulin dimers and TAU5-bound, MAP2-bound, and unbound microtubule fractions) was quantified by Western blot, and tubulin from these fractions was further purified by ion exchange and size exclusion chromatography, as previously described (Fanara, P. et al. In vivo measurement of microtubule dynamics using stable isotope labeling with heavy water. Effect of taxanes. J. Biol. Chem. 279, 49940-49947 (2004)). […]

[3] = Toxicity of maintained body water 2H2O enrichment; assay type: in vivo; conditions: 1-10% of total body water labeled, maintained for weeks or months; >100 human subjects
Text: Relatively high body water enrichments of ^2H2O (e.g., 1-10% of the total body water is labeled) may be achieved relatively inexpensively using the techniques of the invention. […] This finding in a large number of human subjects (>100 people) is contrary to previous concerns about vestibular toxicities at high doses of ^2H2O. One of the Applicants has discovered that as long as rapid changes in body water enrichment are prevented (e.g., by initial administration in small, divided doses), high body water enrichments of ^2H2O can be maintained with no toxicities. For example, the low expense of commercially available ^2H2O allows long-term maintenance of enrichments in the 1-5% range at relatively low expense (e.g., calculations reveal a lower cost for 2 months labeling at 2% ^2H2O enrichment, and thus 7-8% enrichment in the alanine precursor pool, than for 12 hours labeling of ^2H-leucine at 10% free leucine enrichment, and thus 7-8% enrichment in leucine precursor pool for that period).

| SMILES | glutamate-induced increase in total hippocampal protein synthesis [1] | glutamate-stimulated label incorporation into new MAP2/STOP-MTs ([2]; 0.48 nmol glutamate plus 0.66 pmol Rp-cAMP ICVC, 8 and 24 hours) | glutamate-stimulated label incorporation into CS MTs ([2]; 0.48 nmol glutamate plus 0.66 pmol Rp-cAMP ICVC, 24 hours) | fractional synthesis of tubulin dimers and microtubules ([2]; glutamate plus 0.66 pmol Rp-cAMP, 24 hours) | toxicity [3] |
| --- | --- | --- | --- | --- | --- |
| Nc1ncnc2c1ncn2[C@@H]1O[C@@H]2COP(O)(=S)O[C@H]2[C@H]1O (single isomer, unassigned) [Rp-cAMP, adenosine-3′,5′-monophosphorothioate, Rp-isomer] | blocked | blocked | blocked | significantly blocked |  |
| [2H]O[2H] [^2H2O] |  |  |  |  | without any evidence of toxicity |
